The results in this text go back to patent publication US20260217656A1, “Compounds Affecting KRAS” (UNIVERSITAT DE BARCELONA, priority 2022, published 2026).

What all share (type): cell-based, human
One assay has as its system hTERT-RPE cells. As to the kind of experiment: Cleaved caspase-3 Western blot, hTERT-RPE. The following applies: hTERT-RPE cells treated 34 h or 48 h. Here is the method: FIG. 6C is a blot showing extracts of DLD-1, DLD-1-KO and RPE cells at 34 h. and 48 h. DLD-1 cells treated with P14B for 36 h and 48 h were lysed and the expression of the apoptosis marker cleaved caspase-3 was analyzed by Western blot. Cells treated with the apoptosis inducer palmitic acid (PA) were used as a positive control.
Proteins were resolved by SDS-PAGE, transferred onto PVDF membranes (Immobilon-P, Millipore) and Western blot was performed as previously described (Cabot et al, Oncogene 2021). […]
Since both inhibition and sustained activation of RAS signaling are related to a decrease in cell survival, we analyzed the viability of the CRC cell lines DLD-1 (expressing oncogenic KRAS) and DLD-1-KO (oncogenic KRAS allele deleted), and the non-transformed cell line hTERT-RPE. […] The effect of P14B in DLD-1 cells cultured in 3D conditions was also determined. […]

In assay [1] the test system is ERK and AKT in DLD-1 cells stably expressing HA-KRAS-G12V. Put plainly: Western blot of AKT and ERK phosphorylation in DLD-1 cells stably expressing HA-KRAS-G12V. The following applies: serum-starved DLD-1 cells stably expressing HA-KRAS-G12V. The text has this:
(§1) DLD-1 (KRASWT/G13D) (clone V15, #HD PAR-086) colorectal adenocarcinoma cell line and DLD-1 knockout of mutant KRAS allele, DLD-1 KO (KRASWT/−) (clone DWT7, #HD105-002), were obtained from Horizon Discovery Ltd. (Cambridge, UK). hTERT-RPE (KRASWT/WT) immortalized retinal pigment epithelial human cell line was obtained from the […] (ATCC). DLD-1 KO cells stably expressing HA-KRAS G12V were previously generated in our laboratory (Cabot et al., 2021). All cells were grown in DMEM-HAM s F12 (1:1) supplemented with 10% foetal bovine serum (Biological Industries, Israel), penicillin, streptomycin, and nonessential amino acids. Cells were tested once per month for mycoplasma contamination.
Cells were seeded in a media containing 10% FBS for 24 hours and then they were serum starved (0.1% FBS) for the next 24 hours. Afterwards, they were incubated with the different compounds during the times specified in each figure. When indicated, also in order to activate downstream KRAS cell signalling, treatment for 10 minutes with EGF (50 ng/mL) (Sigma-Aldrich) was performed. […]
We assessed the possibility that P14B favors RAS-effector binding and consequently increases downstream RAS signaling. […] The interaction was analyzed after 10 min of P14B treatment since P—C-RAF and P-MEK were observed after 15 min (FIG. 3C). […]

In a further assay the test system is DLD-1-KO cells. Put plainly: MTS cell viability assay, DLD-1-KO. The note with it: at approximately 80 μM.
Description: as §1
10,000 cells in 50 µL of 10% FBS-containing medium, were cultured for 24 hours and then treated with the compounds (50 μL final volume) for 48 h hours in each well of a 96-well plate (100 μL final volume). MTS viability assay (CellTiter 96® Aqueous One Solution Cell Proliferation Assay, Promega G3580) was assessed following the company conditions. The absorbance of each well was measured with a multimode plate reader (Spark, Tecan) at 490 nm. The percentage of cell viability was calculated by dividing the absorbance of each well by the average absorbance of the control wells. […]
(Tetrazolium assays rely on reduction of a dye to a coloured formazan, in cell work by metabolically active cells.)

Regarding `COc1ccc(C(c2c(C)n[nH]c2O)c2c(C)n[nH]c2O)cc1Oc1ccc([N+](=O)[O-])cc1` [Example P14B], the “cleaved caspase-3 expression” value with hTERT-RPE cells is “undetectable”. In addition, in assay [1], the “phosphorylation of AKT and ERK” value was “induced phosphorylation of AKT and ERK”. Moreover, the cell viability result with DLD-1-KO cells is given as “not affected”.
